From PMC9950143 (Scientific Reports, 2023)

Experiments:
[1] = test system: Human Coronavirus OC43 (HCoV-OC43); assay: HCoV-OC43 anti-nucleoprotein ELISA antiviral assay, Huh-7 cells; type: cell-based; conditions: OC43 [Huh-7]
[2] = test system: Human coronavirus 229E (HCoV-229E); assay: microbe, parasite or virus in culture; type: cell-based
Enterovirus 68D = assay: CPE assay, RD cells; type: cell-based; conditions: Enterovirus 68D [RD]
Enterovirus 71 = assay: CPE assay, RD cells; type: cell-based; conditions: Enterovirus 71 [RD]
Rhinovirus 16 = assay: CPE assay, H1 HeLa cells; type: cell-based; conditions: Rhinovirus 16 [H1 HeLa]
[3] = test system: Dengue 1 virus (Western Pacific); assay: microbe, parasite or virus in culture; type: cell-based; conditions: Dengue 1 virus (Western Pacific) [Huh-7]
[4] = test system: Dengue 1 virus (Djibouti); assay: microbe, parasite or virus in culture; type: cell-based
[5] = test system: Dengue 2 virus (New Guinea C); assay: NanoLuc reporter virus infection assay, Huh-7; type: cell-based; conditions: Dengue 2 virus (New Guinea C) [Huh-7]
Dengue 2 virus (RL) = assay: microbe, parasite or virus in culture; type: cell-based
Dengue 3 virus (VN32) = assay: microbe, parasite or virus in culture; type: cell-based; conditions: Dengue 3 virus (VN32) [Huh-7]
Zika virus (PRVABC59) = assay: NanoLuc reporter virus infection assay, Huh-7; type: cell-based; conditions: Zika virus (PRVABC59) [Huh-7]
Zika virus (MR766) = assay: microbe, parasite or virus in culture; type: cell-based
[6] = test system: Yellow fever virus (YFS11); assay: microbe, parasite or virus in culture; type: cell-based
[7] = test system: Japanese encephalitis (14–14-2); assay: microbe, parasite or virus in culture; type: cell-based; conditions: Japanese encephalitis (14–14-2) [Huh-7]
West Nile (NY99) = assay: microbe, parasite or virus in culture; type: cell-based, West Nile virus
Bundibugyo virus = assay: microbe, parasite or virus in culture; type: cell-based
Marburg virus (Ci67) = assay: microbe, parasite or virus in culture; type: cell-based
Marburg (Musoke) = assay: microbe, parasite or virus in culture; type: cell-based, Marburg virus
Ravn Virus = assay: microbe, parasite or virus in culture; type: cell-based
HCV GT1b replicon = assay: HCV subgenomic replicon Renilla luciferase assay, Huh-7-lunet; type: cell-based, hepatitis C virus; conditions: Hepatitis C (1b) [Huh-7-lunet]
[8] = test system: Influenza B (B/Brisbane/60/2008); assay: CPE assay, MDCK cells; type: cell-based; conditions: Influenza B virus; Influenza B (B/Brisbane/60/2008) [MDCK]; read-out: Antiviral activity EC50
[9] = test system: hepatitis E virus (GT3-Kernow C1 p6/Luciferase replicon); assay: HEV replicon Gaussia luciferase assay, Huh-7; type: cell-based; conditions: Hepatitis E GT3 Kernow C1 p6/Luc replicon [Huh-7]
[10] = test system: rhinoviruses of serotypes A and B; assay: CPE assay, H1 HeLa cells (summary over rhinoviruses); type: cell-based; conditions: Enterovirus, read-out: EC50 range against rhinoviruses of serotypes A and B
all SUDV isolates tested = assay: microbe, parasite or virus in culture; type: cell-based; conditions: Sudan ebolavirus, HeLa, read-out: EC50 values against all SUDV isolates tested
SUDV Boniface = type: cell-based, Sudan virus; conditions: read-out: RDV EC50
Huh-7 cells = conditions: human
in vitro = conditions: human
[11] = Cytotoxicity by nuclei count in HDV assay; conditions: human, Huh7-NTCP cells (HDV assay)
[12] = Compound cytotoxicity by MTS dye reduction; conditions: human, RD cells
[13] = Compound cytotoxicity by MTS dye reduction; conditions: human, H1 HeLa cells
H1 HeLa cells = assay: Compound cytotoxicity by MTS dye reduction; conditions: H1 HeLa
[14] = Cytotoxicity, CellTiter-Glo, 96 h (229E protocol); conditions: human, H1 HeLa cells
[15] = Multiplex cytotoxicity (calcein AM) in HCV replicon assay; conditions: human, Huh-7-lunet HCV genotype 1b replicon cells
[16] = as above; conditions: human, Huh-7-lunet HCV genotype 2a replicon cells
[17] = n = 1, read-out: Antiviral activity EC50
[18] = Dengue virus, Huh-7, read-out: Antiviral activity EC50
[19] = Filoviridae, HeLa, read-out: Antiviral activity EC50

In the case of CCC(CC)COC(=O)[C@H](C)N[P@](=O)(OC[C@H]1O[C@@](C#N)(c2ccc3c(N)ncnn23)[C@H](O)[C@@H]1O)Oc1ccccc1 [RDV, Remdesivir], the EC50 ([1]; Betacoronavirus 1) is reported as 67 ± 5 nM, the “Selectivity index (SI) = CC50/EC50” value [1] is reported as 282 and the “Selectivity index (SI) = CC50/EC50” value [2] is reported as over 538. For the same molecule, the EC50 ([2]; Human coronavirus 229E, H1-HeLa, read-out: Antiviral activity EC50) was 93 ± 53 nM, the “Selectivity index (SI) = CC50/EC50” value (Enterovirus 68D) was 56 and the EC50 (Enterovirus 68D; [17]) was 50 nM. For the same molecule, the “Selectivity index (SI) = CC50/EC50” value (Enterovirus 71) was 24, the EC50 (Enterovirus 71; Enterovirus A, n = 1, read-out: Antiviral activity EC50) was 140 nM and the EC50 (Rhinovirus 16; Enterovirus, n = 1, read-out: Antiviral activity EC50) was 750 nM. For the same molecule, the “Selectivity index (SI) = CC50/EC50” value (Rhinovirus 16) was over 13, the “Selectivity index (SI) = CC50/EC50” value [3] was 159 and the EC50 [3, 17] was 210 nM. The “Selectivity index (SI) = CC50/EC50” value [4] was 108, the EC50 [4, 18] was 310 ± 90 nM and the “Selectivity index (SI) = CC50/EC50” value [5] was 145. The EC50 [5, 17] was 230 nM, the “Selectivity index (SI) = CC50/EC50” value (Dengue 2 virus (RL)) was 115 and the EC50 (Dengue 2 virus (RL); [18]) was 290 ± 70 nM. The “Selectivity index (SI) = CC50/EC50” value (Dengue 3 virus (VN32)) was 278, the EC50 (Dengue 3 virus (VN32); [17]) was 120 nM and the “Selectivity index (SI) = CC50/EC50” value (Zika virus (PRVABC59)) was 128. The EC50 (Zika virus (PRVABC59); [17]) was 260 nM, the “Selectivity index (SI) = CC50/EC50” value (Zika virus (MR766)) was 29 and the EC50 (Zika virus (MR766); Zika virus, Huh-7, read-out: Antiviral activity EC50) was 1150 ± 30 nM. The “Selectivity index (SI) = CC50/EC50” value [6] was 32, the EC50 ([6]; Yellow fever virus, Huh-7, n = 1, read-out: Antiviral activity EC50) was 1060 nM and the “Selectivity index (SI) = CC50/EC50” value [7] was 98. For the same molecule, the EC50 ([7]; Japanese encephalitis virus, n = 1, read-out: Antiviral activity EC50) was 340 nM, the “Selectivity index (SI) = CC50/EC50” value (West Nile (NY99)) was 668 and the EC50 (West Nile (NY99); West Nile virus, Huh-7, n = 1, read-out: Antiviral activity EC50) was 50 nM. For the same molecule, the “Selectivity index (SI) = CC50/EC50” value (Bundibugyo virus) was over 53, the EC50 (Bundibugyo virus; Bundibugyo virus, HeLa, read-out: Antiviral activity EC50) was 190 ± 20 nM and the “Selectivity index (SI) = CC50/EC50” value (Marburg virus (Ci67)) was over 83. For the same molecule, the EC50 (Marburg virus (Ci67); [19]) was 30 ± 2 nM, the “Selectivity index (SI) = CC50/EC50” value (Marburg (Musoke)) was over 63 and the EC50 (Marburg (Musoke); [19]) was 40 ± 4 nM. The “Selectivity index (SI) = CC50/EC50” value (Ravn Virus) was over 37, the EC50 (Ravn Virus; [19]) was 68 ± 10 nM and the “Selectivity index (SI) = CC50/EC50” value (HCV GT1b replicon) was over 225. The EC50 (HCV GT1b replicon; Hepatitis C virus, GT1B, read-out: Antiviral activity EC50) was 89 ± 47 nM, the EC50 [8] was over 50000 nM and the “Selectivity index (SI)” value [9] was “Low (When minimal RDV antiviral activity is observed for a particular virus, low SI is indicated)”. It also gave an EC50 ([9]; Hepatitis E virus, read-out: Antiviral activity EC50) of over 2070 nM, an EC50 [10] of 385 to 750 nM and an EC50 (all SUDV isolates tested) of 120 to 240 nM. For the same molecule, the EC50 (SUDV Boniface) was 212 nM, the “concentration at which cytotoxicity was observed” value (Huh-7 cells) was “approximately 4 µM” and the CC50 at 48 h (in vitro) was over 2500 nM. For the same molecule, the CC50 (in vitro; RDV CC50 (SUDV assay)) was over 2500 nM, the CC50 [11] was 8000 to 10000 nM and the CC50 ([12]; listed as Enterovirus 68D) was 2820 nM. It also gave a CC50 ([12]; listed as Enterovirus 71) of 3310 nM, a CC50 [13] of over 10000 nM and a CC50 (H1 HeLa cells; listed as Rhinovirus 14) of over 10000 nM. It also gave a CC50 (H1 HeLa cells; listed as Rhinovirus 16) of over 10000 nM, a CC50 at 96 h [14] of over 50000 nM and a CC50 [15] of over 20000 nM. The CC50 [16] was 17000 ± 3000 nM.
